Tests used:
Format in all cases: cell-based, human
Vγ9Vδ2 T cells [1] = test: Expression of activating and inhibitory receptors by Vγ9Vδ2 T cells in HD-PBMC; conditions: for effect on ICT01-induced expression of activating and inhibitory receptors on Vγ9Vδ2 T cells: day 5, Venetoclax 0-0.1 μM, 5-Azacytidine 0-0.4 μM
Experimental: Vγ9Vδ2 T cell functions are tightly regulated by activating (NKG2D and DNAM-1) and inhibitory receptors (PD-1, NKG2A, BTLA, TIM3). To assess the impact of Venetoclax and 5-Azacytidine treatment on the expression of these receptors by Vγ9Vδ2 T cells, frozen human PBMC from healthy donors (HD, n=6) were thawed and treated with ICT01 or its isotype control (hIgG1S) used at 1 μg/mL in the presence or absence of increasing concentrations of Venetoclax (0-0.1 μM), 5-Azacytidine (0-0.4 μM) or the combination in PBMC medium (RPMI 1640 Medium supplemented with 10% FBS, 1% Penicillin/Streptomycin, 1 mM Sodium Pyruvate and 50 IU/mL IL2). Cells were harvested on day 5, centrifuged at 1800 rpm for 5 minutes and then incubated 10 minutes at RT with 25 μl of FcR blocking reagent (Miltenyi Biotec) before adding 25 μL of the following antibody mix prepared in PBS+2% FBS+2 mM EDTA (FACS buffer): anti-CD4-BUV395, Vδ2-PE, CD3-PE-CF594 and CD8-A700 antibodies for the identification of immune subsets, anti-BTLA-BV421, PD1-BV650, DNAM-1-BV785, TIM3-BB515, NKG2A-PE-Vio770 and NKG2D-APC antibodies for the detection of inhibitory and activating receptors, and a viability marker (LIVE/DEAD™ Fixable Dead Cell Stain) was added to distinguish live from dead cells. Cells were incubated 20 minutes at 4° C. and washed 2 times in FACS buffer before flow cytometry analysis.

Vγ9Vδ2 T cells [2] = test: Proliferation of Vγ9Vδ2 T cells in HD-PBMC (CellTrace Violet); conditions: day 4, ICT01 1 μg/mL; for ICT01 and IL2-induced proliferation of Vγ9Vδ2 T cells: 50 IU/mL IL2; for increase of ICT01-induced proliferation of Vγ9Vδ2 T cells: absence of IL2
Experimental: Finally, freshly isolated human PBMC from healthy donors (HD, n=6) were labeled with CellTrace Violet stain (CTV, Invitrogen) to determine cell proliferation upon treatment with ICT01 or its isotype control (hIgG1S) used at 1 μg/mL in the presence or absence of increasing concentrations of Venetoclax (0-0.1 μM), 5-Azacytidine (0-0.4 μM) or the combination in PBMC medium (RPMI 1640 Medium supplemented with 10% FBS, 1% Penicillin/Streptomycin and 1 mM Sodium Pyruvate). Half of the cells were additionally treated with 50 IU/mL IL2. Cells were harvested on day 4, centrifuged at 1800 rpm for 5 minutes and then incubated 10 minutes at RT with 25 μl of FcR blocking reagent (Miltenyi Biotec) before adding 25 μL of the following antibody mix prepared in PBS+2% FBS+2 mM EDTA (FACS buffer): anti-CD4-BV650, CD56-FITC, Vδ2-PE, CD3-PE-CF594 and CD8-A700 antibodies for the identification of immune subsets, and a viability marker (LIVE/DEAD™ Fixable Dead Cell Stain) was added to distinguish live from dead cells. Cells were incubated 20 minutes at 4° C. and washed 2 times in FACS buffer before flow cytometry analysis.

KG1a AML cell line = test: Sensitivity of KG1a AML cell line (Cell Titer Glo luminescence); conditions: for EC50: Homo sapiens, KG-1a, 48 h, 2 days treatment, luminescence, read-out: EC50 on KG1a AML cells; for mean survival of KG1a AML cells: Venetoclax at 5 μM and/or 5-Azacytidine at 10 μM, 2 days
Experimental: First, to assess the sensitivity of KG1a AML cell line to Venetoclax and 5-Azacytidine treatment in vitro, cells were treated with increasing concentrations of Venetoclax (0-5 μM), 5-Azacytidine (0-10 μM) or the combination for 2 days in cell culture medium (alpha-MEM+Glutamax supplemented with 20% Fetal Bovine Serum (FBS) and 1 mM Sodium Pyruvate). On day 2, cells were centrifuged at 1800 rpm for 5 minutes and the supernatant discarded. Cells were lysed with Cell Titer Glo reagent (Promega), and ATP amount was monitored as a measure of living cells using luminescence.

MOLM14 cells = test: Killing of MOLM14 AML cells in co-culture with HD-PBMC (flow cytometry); conditions: ICT01 0.1 μg/mL, HD-PBMC ratio 5:1, 2 days
Experimental: KG1a or MOLM14 AML cell lines were co-cultured with HD-PBMC at ratio 5:1 in presence of ICT01 or isotype control (0.1 μg/mL). After 6 hrs, indicated concentrations of ABT-737, Navitoclax or MIK665 were added to the culture. A) Relative numbers of live KG1a cells (Mean±SEM) after 2 days of co-culture with HD-PBMC in presence of ICT01 (black) or its isotype control hIgG1S (light grey) and treatment with indicated concentration of ABT-737. B) Relative numbers of live KG1a cells (Mean±SEM) after 2 days of co-culture with HD-PBMC in presence of ICT01 (black) or its isotype control hIgG1S (light grey) and treatment with indicated concentration of Navitoclax. C) Relative numbers of live MOLM14 cells (Mean±SEM) after 2 days of co-culture with HD-PBMC in presence of ICT01 (black) or its isotype control hIgG1S (light grey) and treatment with indicated concentration of MIK665. N=6 HD, each dot represents one healthy donor, * p<0.05, 2 way ANOVA.
The effect of the three Bcl-2 family member inhibitors ABT-737, Navitoclax and MIK665, on ICT01-induced killing of AML cell lines by Vγ9Vδ2 T cells was assessed by measuring the relative number of surviving target cells in a HD-PBMC-AML cells co-culture using flow cytometry.
For assays using ABT-737 or Navitoclax, KG1a cells were used. […] Therefore, MOLM14 cells, which express MCL-1, were used in killing assays assessing the activity of ICT01 combined with MIK665.

Raji (Burkitts Lymphoma) = test: Killing of Raji cells in co-culture with HD-PBMC (flow cytometry); conditions: co-culture with HD-PBMC ratio 5:1, 48 hrs
Experimental: (§1) Raji cells (Burkitt Lymphoma) or JVM2 cells (Chronic-B cell Leukemia) were co-cultured with HD-PBMC at ratio 5:1 in presence of ICT01 or isotype control (0.1 μg/mL or 1 μg/mL). After 6 hrs, indicated concentrations of Venetoclax, 5-Azacytidine or the combination were added to the culture. Relative numbers of live Raji (A) or JVM2 (B) were monitored after 48 hrs by flow cytometry. […] N=6, each dot represents one healthy donor, * p<0.05, ** p<0.01, 2 way ANOVA.
(§2) The effect of Venetoclax and 5-Azacytidine on BTN3A activating antibody-induced killing of Burkitt Lymphoma and Chronic-B-cell leukemia cell lines by Vγ9Vδ2 T cells was assessed by measuring the relative number of surviving target cells in a HD-PBMC-Target cell co-culture using flow cytometry.

[3] = test system: JVM-2 (Chronic B-cell leukemia); test: Killing of JVM-2 cells in co-culture with HD-PBMC (flow cytometry); conditions: co-culture with HD-PBMC ratio 5:1, 48 hrs
Experimental: as §1, §2

| Compound | effect on ICT01-induced expression of activating and inhibitory receptors on Vγ9Vδ2 T cells (Vγ9Vδ2 T cells [1]) | ICT01 and IL2-induced proliferation of Vγ9Vδ2 T cells (Vγ9Vδ2 T cells [2]) | increase of ICT01-induced proliferation of Vγ9Vδ2 T cells (Vγ9Vδ2 T cells [2]) | EC50 (KG1a AML cell line) | mean survival of KG1a AML cells (KG1a AML cell line) | MOLM14 cell death as compared to control condition (MOLM14 cells) | decrease of live Raji cells as compared to hIgG1S alone condition (control) (Raji (Burkitts Lymphoma)) | expression of activating (NKG2D, DNAM-1) and inhibitory receptors (PD-1, NKG2A, BTLA, TIM3) on Vγ9Vδ2 T cells (Vγ9Vδ2 T cells [1]; day 5, ICT01 1 μg/mL, 50 IU/mL IL2) | decrease of live JVM-2 cells as compared to hIgG1S alone condition (control) [3] |
| --- | --- | --- | --- | --- | --- | --- | --- | --- | --- |
| Nc1ncn([C@@H]2O[C@H](CO)[C@@H](O)[C@H]2O)c(=O)n1 [5-Azacytidine, 4-amino-1-[(2R,3R,4S,5R)3,4-dihydroxy-5-(hydroxymethyl)oxolan-2-yl]-1,3,5-triazin-2-one] | unaffected | unaffected | not observed | 4.72 µM | 47.2% |  |  |  |  |
| ICT01: humanized BTN3A activating antibody of mAb 7.2, heavy chain SEQ ID NO: 4, light chain SEQ ID NO: 6, silent IgG1 L247F/L248E/P350S |  |  |  |  |  | ~ 56% | ~ 22% | increased expression | ~ 16% |
| CC1(C)CCC(CN2CCN(c3ccc(C(=O)NS(=O)(=O)c4ccc(NCC5CCOCC5)c([N+](=O)[O-])c4)c(Oc4cnc5[nH]ccc5c4)c3)CC2)=C(c2ccc(Cl)cc2)C1 [Venetoclax, 4-[4-[[2-(4-chlorophenyl)-4,4-dimethylcyclohexen-1-yl]methyl]piperazin-1-yl]-N-[3-nitro-4-(oxan-4-ylmethylamino)phenyl]sulfonyl-2-(1H-pyrrolo[2,3-b]pyridin-5-yloxy)benzamide] | unaffected | unaffected | ~ 10% | 1.82 µM | 20.2% |  |  |  |  |

Source: patent US20260256909A1, “COMBINATION OF A BTN3A ACTIVATING ANTIBODY, A BCL2 INHIBITOR AND HYPOMETHYLATING AGENT FOR USE IN TREATING CANCER” (Imcheck Therapeutics, priority 2022, published 2026)
